Test results reported in patent US20230348506A1, “MACROCYCLIC PANTETHEINE DERIVATIVES AND USES THEREOF” (VectivBio Comet AG, priority 2019, published 2023).

Assays:
[1] = test system: Methylmalonic Acidemia (MMA) Primary fibroblasts (GM01673, Coriell Institute for Medical Research); experiment: Measurement of total GSH and GSSG dimer (GSH/GSSG ratio); format: cell-based, human; conditions: 10 μM compound for 2 hours
Method: Primary adherent fibroblasts were cultured in minimum essential medium (MEM) (Gibco, 25030081) supplemented with 2 mM L-Glutamine (Gibco, 25030081), 15% fetal bovine serum (FBS) (Gibco, 26400044) and 1% penicillin/streptomycin (Gibco, 5140122) at 37° C. and 5% CO2. Cells were collected for either passaging or experiment at ˜70-80% confluence. Cells were obtained by trypsinization and seeded in a white cell culture microplates (Thermo Fisher Scientific, 152028) for luminescent measurement. Cells were obtained by trypsinization and […] were seeded and allowed to adhere for 16-18 hours to have confluency around 70-80% in the cell well with culture media. After 24 hours prior to measurements (37° C, 5% CO2) media was changed to Dulbecco's Modified Eagle Medium (DMEM, Agilent Seahorse cat #103575-100) with the appropriate supplements (1 mM glucose, 2 mM L-glutamine, 1 mM pyruvate, 10% FBS).
Assay was performed according to manufacturer instructions (Promega, V6612). At the end of appropriate time point, the assay requires one plate for total measurement of GSH and one plate for GSSG. For every assay a 11-point standard curve is prepared ranging from 8 μM to 0.013 μM. […] Finally, 100 μl/well of Luciferin Detection reagent were added and incubated for 15 minutes before the chemiluminescence was detected. Free GSH/GSSG ratio was calculated as (Total GSH-GSSH)/(GSSG/2). […]

[2] = test system: primary adherent fibroblast cell line derived from an Methylmalonic Acidemia (MMA) patient (GM01673, Coriell Institute for Medical Research); experiment: Mitochondrial respiration (Seahorse XFe96, OCR), Spare Capacity AUC; format: cell-based, human; conditions: 10 μM compound, 1 μM FCCP for 20 cycles, relative to vehicle
Method: The effect of the compounds of the present disclosure on mitochondrial respiration was measured with a XFe96 Extracellular Flux Analyzer (Seahorse Bioscience, Agilent Technologies) and Oxygen consumption Rate (OCR) and Extracellular acidification rate (ECAR) determined.
Cell culture and treatments. Primary adherent fibroblasts were cultured in minimum essential medium (MEM) (Gibco, 25030081) supplemented with 2 mM L-Glutamine (Gibco, 25030081), 15% fetal bovine serum (FBS) (Gibco, 26400044) and 1% penicillin/streptomycin (Gibco, 5140122) at 37° C. and 5% CO2. Cells were collected for either passaging or experiment at ˜70-80% confluence. Cells were obtained by trypsinization and seeded at 10,000 cells/well in cell culture microplates (Seahorse Bioscience, 101085-004) and allowed to adhere for 48 hours in culture media. […]
Determining the optimized cell density and concentrations for stress test, such as FCCP, were achieved through methods well known to those of skill in the art. After baseline measurements of OCR, cells were challenged with compounds of the present disclosure at different concentrations (10 to 50 μM) or vehicle (DMSO, 0.1%) and a post-compound baseline was recorded. OCR was measured after sequentially adding to each well 1.5 μg/ml oligomycin (inhibitor of ATP synthase Sigma-Aldrich, 753531), then maximal OCR was determined with carbonyl cyanide 4-(trifluoromethoxy) phenylhydrazone (FCCP, Sigma-Aldrich, C2920), (uncoupler of oxidative phosphorylation) and 1.0 μM of rotenone (Sigma-Aldrich, R8875) plus antimycin A (Sigma-Aldrich, A8674) (inhibitors of mitochondrial complex I and III) for determination of rotenone-antimycin insensitive respiration together with Hoechst for nuclear staining in situ when normalized to cell counts. After the analysis and nuclear staining, the XFp microplate was transferred to the Cytation 5, and the nuclear images were captured, the individual nuclei were identified and counted by BioTek Gen5 software. […]

Compound: CC1(C)COC(=O)CCC(=O)SCCNC(=O)CCNC(=O)[C@@H]1O [Compound 206, (R)-15-hydroxy-16,16-dimethyl-1-oxa-6-thia-9,13-diazacycloheptadecane-2,5,10,14-tetraone]
- increase of the GSH/GSSG ratio [1]: at least 20%
- increase of Spare Capacity AUC ([2]; medium with 1 mM glucose): at least 50%
- increase of Spare Capacity AUC ([2]; medium with 10 mM glucose, 2 mM glutamine, 1 mM pyruvate): > 10%
